From patent US20200239398A1, “METHYLENE-CYCLOALKYLACETATE DERIVATIVES AND THEIR USE IN TREATMENT OF NEUROTROPIC CONDITIONS” (Yissum Research Development Company of The Hebrew …, priority 2018, published 2020) come the findings set out here.

Where two headings read alike, the source gives them in different places.

The test system of test [1] is PC12 cells. In words: Additive neurotropic effect between HU-MCA-13 and NGF, PC12 neurite outgrowth. Type of test: cell-based, rat. The procedure: PC12 cells were cultured in T-200 flasks in high glucose (4.5 gr/L) DMEM medium supplemented with 7% FCS, 7% horse serum and 1% penicillin and streptomycin. Cells will be maintained at 37° C. in a humidified incubator containing 6% CO2. All experiments were carried out in a GLP clean room, according to ISO 7 requirements (10,000 particles/m^3). For neurotropic experiments, tissue culture Falcon plates were coated with 200 μg/ml collagen type 1 and placed under UV light for 30 minutes for sterilization. Thereafter, one ml of PC12 cell suspension (5000 cells/well) was applied in 12 or 24 well plate, respectively. The cultures were maintained in the incubator two days before exposure to investigated compound. Each neurotropic experiment contained two controls. The first consisted of untreated cells (negative control), representing the random effect: “noise signal”—the ability of cells to spontaneously grow neurite outgrowth which in seven days are of a length less than two-fold cell diameter. Also, negative controls consisted of cultures treated with 1% DMSO, solvent used to solubilize HU-MCA-13. The positive controls represented neuronal cultures treated with 50 ng/ml NGF, indicating maximal neurite outgrowth that can be achieved in this model. The experimental group consisted of PC12 cells treated with 10 μM HU-MCA-13. In each experiment, after two and seven days, six cultures will be evaluated for neurotropic effect. These consecutive observations allow measurement of the progress of neurite outgrowth elongation and the percentage of cells with neurites (Katzir et al. A quantitative bioassay for nerve growth factor, using PC12 clones expressing different levels of trkA receptors. J Mol Neurosci. 2002; 18(3):251-64). In order to assess neurotropic effect, the neurite outgrowth length in each culture was quantified. For this purpose, each culture was placed under an inverted microscope and photographed by the attached camera. Each well was photographed at three to five representative areas. After acquiring the photos, they were analyzed by ImageJ, NIH software. The neurite outgrowth was estimated by fractal dimension (Df), a statistical parameter that describes the fractional space (area and length) filled by neurite outgrowth. Df ranged from 0 to 1.20. This method estimated the amount of picsels covered by neurites/cells compared to empty space per square field, and therefore plotting log(number of square boxes) vs. log(size in pixels) relationship generated a linear curve with Df representing the slope of the curve. Every photograph that was taken, was opened in a Photoshop software and a new layer was generated on it. Using a 5-pixel wide digital pencil tool, all the outgrowths were marked and the layer with the markers (outgrowth network) were saved in a 0-255 gray scale. Thereafter, the saved layer was opened by ImageJ NIH software.
Using an established PC12 neurotropic in vitro assay, the regenerative enhancing effect of HU-MCA-13 when applied concomitantly, together with NGF, a known neurotrophin was investigated. […] NGF alone, as positive control, at the conventional dose of 50 ng/ml enhanced neurite outgrowth to a Df value of 0.54 at 2 days and 0.4 at 7 days of treatment (FIG. 5). To verify a possible additive effect, the cultures with a mixture of low dose NGF (1 ng/ml generating 10% neurite outgrowth=Df of 0.05) and 1 μM HU-MCA-13 generating about 10-15% neurite outgrowth=Df of 0.04) were tested and found after 2 days a Df of 0.85 and after 7 days a Df of 0.38. NGF is released by hematopoietic cells during polyneuropathy inflammatory process, this finding further strength the possibility of a potential enhancement regenerative effect of this drug upon in vivo therapy.

Test [2] has as its target Muscarinic acetylcholine Receptor M1 (CHRM1) (Homo sapiens, UniProt P11229). In words: cell-based. Conditions: 10 μM HU-MCA-13, read-out: Maximal Response.
The next test deals with T1, Cyclooxygenase 2 (COX 2) (Homo sapiens, UniProt P35354).
T1 construct: DiscoverX (SAFETYscan contract panel)
T1 sequence (P35354 18-604): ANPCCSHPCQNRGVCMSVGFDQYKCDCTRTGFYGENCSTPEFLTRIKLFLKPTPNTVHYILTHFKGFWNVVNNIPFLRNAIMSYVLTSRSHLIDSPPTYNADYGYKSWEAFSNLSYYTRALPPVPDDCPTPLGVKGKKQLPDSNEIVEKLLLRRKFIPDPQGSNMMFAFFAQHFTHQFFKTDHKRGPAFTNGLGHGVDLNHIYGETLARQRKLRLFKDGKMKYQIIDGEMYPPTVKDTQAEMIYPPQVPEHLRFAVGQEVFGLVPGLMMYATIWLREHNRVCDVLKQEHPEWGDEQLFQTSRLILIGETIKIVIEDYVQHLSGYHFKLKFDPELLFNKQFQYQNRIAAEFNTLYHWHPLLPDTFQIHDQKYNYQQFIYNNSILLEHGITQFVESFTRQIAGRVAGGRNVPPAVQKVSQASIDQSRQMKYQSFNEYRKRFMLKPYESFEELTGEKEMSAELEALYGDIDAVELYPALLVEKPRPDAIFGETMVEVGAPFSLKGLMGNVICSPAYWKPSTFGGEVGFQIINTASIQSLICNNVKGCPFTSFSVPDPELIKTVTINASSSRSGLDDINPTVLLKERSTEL
As to the kind of experiment: SAFETYscan COX 2 Enzymatic. Type of test: biochemical. As to conditions: Inhibitor mode; 10 μM HU-MCA-13; read-out: Maximal Response.

Test [3] has as its system PC12 cells. As to the kind of experiment: PC12 cell neurotropic assay (neurite outgrowth). Type of test: cell-based, rat. Conditions: 10 μM. The procedure:
PC12 cells were grown in T-200 flasks in high glucose (4.5 gr/L) DMEM medium supplemented with 7% FCS, 7% horse serum and 1% penicillin and streptomycin. Cells were incubated at 37° C. in a humidified incubator containing 6% CO2. All experiments were carried out in a clean room, according to ISO7 requirements (10,000 particles/m^3).
Tissue culture Falcon plates were coated with 200 μg/ml collagen type 1 and placed under UV light for 30 minutes for sterilization. Thereafter, one ml of PC12 cell suspension (5000 cells/well) was applied in 12 or 24 well plate, respectively. The cultures were grown in the incubator two days before exposure to investigated compound.
This experimental procedure contained two controls. The first consisted of untreated cells (negative control), representing the random effect: “noise signal”—the ability of cells to spontaneously grow neurite outgrowth which in seven days are of a length less than two-fold cell diameter. Also, negative controls consisted of cultures treated with 1% DMSO, solvent used to solubilize all compounds. The positive control consisted of cells treated with 50 ng/ml NGF, indicating maximal neurite outgrowth that can be achieved in this model. The experimental group consisted of PC12 cells treated with synthetic compounds. In each experiment, after two and seven days, six cultures were evaluated for neurotropic effect. These consecutive observations allow measurement of the progress of neurite outgrowth elongation and the percentage of cells with neurites.^31
In order to assess neurotropic effect, the neurite outgrowth length in each culture was quantified. For this purpose, each culture was placed under an inverted microscope and photographed by the attached camera. Each well was photographed at three to five representative areas. After acquiring the photos, they were analyzed by ImageJ, NIH software. The neurite outgrowth was estimated by fractal dimension (Df), a statistical parameter that describes the fractional space (area and length) filled by neurite outgrowth. Df ranged from 0 to 1.20. This method estimates the amount of picsel covered by neurites/cells compared to empty space per square field, and therefore plotting log (number of square boxes) vs. log (size in pixels) relationship generates a linear curve with Df representing the slope of the curve. Every photograph that was taken, was opened in a Photoshop software and a new layer was generated on it. Using a 5-pixel wide digital pencil tool, all the outgrowths were marked and the layer with the markers (outgrowth network) was saved in a 0-255 gray scale as described in FIG. 2. Then, the saved layer was opened by ImageJ NIH software. The software “skeletonized” the layer, measured the length and complexity of every outgrowth in a fractal box count and calculated the fractional dimension parameter (Df).^32
Each experiment was performed in duplicates and repeated three to four times (n=6-8). By using SPSS software, one way ANOVA was performed for the fractional dimension of each compound, in order to evaluate the neurotropic effect. In case of significance, Bonferroni post-hoc analysis was performed. The results were considered significant when p<0.05.

Chain of Muscarinic acetylcholine Receptor M1 (CHRM1) (P11229 whole entry): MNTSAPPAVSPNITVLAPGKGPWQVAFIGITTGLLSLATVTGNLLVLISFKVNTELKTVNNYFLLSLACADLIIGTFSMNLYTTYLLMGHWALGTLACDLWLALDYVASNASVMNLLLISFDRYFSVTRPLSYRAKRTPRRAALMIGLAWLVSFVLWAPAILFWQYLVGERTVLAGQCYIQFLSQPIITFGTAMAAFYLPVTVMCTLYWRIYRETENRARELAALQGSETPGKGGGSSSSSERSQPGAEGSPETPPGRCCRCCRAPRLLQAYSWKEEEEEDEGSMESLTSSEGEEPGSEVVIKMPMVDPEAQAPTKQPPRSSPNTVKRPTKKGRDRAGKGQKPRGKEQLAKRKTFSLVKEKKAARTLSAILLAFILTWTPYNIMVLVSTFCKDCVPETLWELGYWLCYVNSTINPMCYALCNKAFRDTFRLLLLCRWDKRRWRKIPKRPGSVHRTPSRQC

As for `C=CCC1CCC[C@@H](CCC(=O)O)C1=C` (stereo partly shown) [Compound 13], the neurite outgrowth in the test on PC12 cells [1] (1 μM HU-MCA-13) is 10-15%. The “neurite outgrowth Df” value worked out at 0.04 with PC12 cells [1] (1 μM HU-MCA-13); 0.36 in the test with PC12 cells [1] (HU-MCA-13 alone at 10 μM, 2 days); 0.30 in the test on PC12 cells [1] (HU-MCA-13 alone at 10 μM, 7 days). Also, the Emax in test [2] (Agonist mode) was determined as 0%; in test [2] (Antagonist mode), 7.43%; on Cyclooxygenase 2 (COX 2), 7.99%. In addition, the “Neurotropic effect (mean ± SE) Seven Days Df” value with PC12 cells [3] (PC12 cells, seven days of treatment, Df = fractal dimension of neurite outgrowth) turned out to be 0.45 ± 0.01. Moreover, the “Neurotropic effect (mean ± SE) Two Days Df” value with PC12 cells [3] (PC12 cells, two days of treatment, Df = fractal dimension of neurite outgrowth) turned out to be 0.39 ± 0.01. For the same compound, in the test on PC12 cells [3] (seven days, relative to NGF 50 ng/ml), the “Neurotropic effect Seven Days NGF (%)” value came out at 97.8%. In addition, the “Neurotropic effect Two Days NGF (%)” value in the test on PC12 cells [3] (two days, relative to NGF 50 ng/ml) was determined as 84.8%. Moreover, the “neurotropic activity (in words)” value in the test with PC12 cells [3] (after seven days of treatment) is on record as “significant neurotropic activity”. For the same compound, in the test on PC12 cells [3] (after two days of treatment), the “inducing fast neurite outgrowth (in words)” value was “most active”.
